pIC50: −log10 of the molar value. Counter-ions that a name gives are not always drawn.
The compounds below were run against human norepinephrine transporter (hNET) (Homo sapiens, UniProt P23975) (assay: hNET uptake, Protocol B: cell based norepinephrine reuptake assay using recombinant hNET (MDCK-Net6 cells)). Settings: MDCK-Net6, read-out: NE uptake (Protocol B) % inhibition @ 6 uM.
human norepinephrine transporter (hNET), sequence (P23975 whole entry): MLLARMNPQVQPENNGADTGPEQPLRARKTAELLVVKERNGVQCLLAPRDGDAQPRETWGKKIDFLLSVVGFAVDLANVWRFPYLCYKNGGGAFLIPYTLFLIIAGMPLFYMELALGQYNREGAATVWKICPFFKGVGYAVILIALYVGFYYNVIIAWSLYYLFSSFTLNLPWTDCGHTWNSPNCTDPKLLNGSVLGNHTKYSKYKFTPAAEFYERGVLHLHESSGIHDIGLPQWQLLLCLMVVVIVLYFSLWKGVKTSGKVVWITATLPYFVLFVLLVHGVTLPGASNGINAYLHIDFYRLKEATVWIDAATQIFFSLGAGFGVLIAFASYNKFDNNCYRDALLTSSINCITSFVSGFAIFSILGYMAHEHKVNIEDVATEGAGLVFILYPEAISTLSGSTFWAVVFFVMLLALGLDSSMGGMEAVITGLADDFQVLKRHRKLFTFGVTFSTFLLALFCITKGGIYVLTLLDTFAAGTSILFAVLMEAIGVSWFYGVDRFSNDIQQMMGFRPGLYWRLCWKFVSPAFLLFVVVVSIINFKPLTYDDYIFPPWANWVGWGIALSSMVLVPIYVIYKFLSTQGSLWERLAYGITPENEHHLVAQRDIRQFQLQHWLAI
Compound `O=S1(=O)N(CCCNCC(F)(F)F)c2ccccc2N1c1ccc(F)c(F)c1` [Example 111, 3-[3-(3,4-difluorophenyl)-2,2-dioxido-2,1,3-benzothiadiazol-1(3H)-yl]-N-(2,2,2-trifluoroethyl)propan-1-amine] has an inhibition at 6 µM of 0%.

Same assay, conditions: NE uptake (Protocol B) IC50 (nM), MDCK-Net6 cells, 3H-NE 16 nM
For `CNCCCN1c2ccccc2N(c2ccc(F)cc2F)S1(=O)=O` [Example 114, 3-[3-(2,4-difluorophenyl)-2,2-dioxido-2,1,3-benzothiadiazol-1(3H)-yl]-N-methylpropan-1-amine hydrochloride], the IC50 was 11 nM.
Compound `Cc1ccc(N2c3ccccc3N(CCCCN)S2(=O)=O)c(F)c1` [Example 105, 4-[3-(2-fluoro-4-methylphenyl)-2,2-dioxido-2,1,3-benzothiadiazol-1(3H)-yl]butan-1-amine] has an IC50 of 125 nM.
Work on `O=S1(=O)N(CCCNC2CCCCC2)c2ccccc2N1c1c(F)cccc1F` [Example 130, N-{3-[3-(2,6-difluorophenyl)-2,2-dioxido-2,1,3-benzothiadiazol-1(3H)-yl]propyl}cyclohexanamine hydrochloride] yielded an IC50 of 224 nM.
`CNCCCN1c2ccccc2N(c2ccc(OC)cc2F)S1(=O)=O` [Example 91, 3-[3-(2-fluoro-4-methoxyphenyl)-2,2-dioxido-2,1,3-benzothiadiazol-1(3H)-yl]-N-methylpropan-1-amine hydrochloride] gave an IC50 of 325 nM.
Compound `CNCCCN1c2ccccc2N(c2cc(C)ccn2)S1(=O)=O` [Example 30, N-methyl-3-[3-(4-methylpyridin-2-yl)-2,2-dioxido-2,1,3-benzothiadiazol-1(3H)-yl]propan-1-amine hydrochloride] has an IC50 of 15.3 nM.
Work on `CNCCCN1c2ccccc2N(c2cccc(C(F)(F)F)c2)S1(=O)=O` [Example 51, 3-{2,2-dioxido-3-[3-(trifluoromethyl)phenyl]-2,1,3-benzothiadiazol-1(3H)-yl}-N-methylpropan-1-amine hydrochloride] yielded an IC50 of 3170 nM.
For `O=S1(=O)N(CCCCNC2CCCCC2)c2ccccc2N1c1c(F)cccc1F` [Example 125, N-{4-[3-(2,6-difluorophenyl)-2,2-dioxido-2,1,3-benzothiadiazol-1(3-yl]butyl}cyclohexanamine hydrochloride], the IC50 was 440 nM.
For `NCCCCN1c2ccccc2N(c2ccccc2F)S1(=O)=O` [Example 58, 4-[3-(2-fluorophenyl)-2,2-dioxido-2,1,3-benzothiadiazol-1(3H)-yl]butan-1-amine], the IC50 was 3270 nM.
`NCCCCCCN1c2ccccc2N(c2ccccc2F)S1(=O)=O` [Example 102, 6-[3-(2-fluorophenyl)-2,2-dioxido-2,1,3-benzothiadiazol-1(3H)-yl]hexan-1-amine] showed an IC50 of 26 nM.
For `CNCCCN1c2ccc(C)cc2N(c2ccccc2)S1(=O)=O` [Example 38, N-methyl-3-(5-methyl-2,2-dioxido-3-phenyl-2,1,3-benzothiadiazol-1(3H)-yl)propan-1-amine], the IC50 was 13.9 nM.
`NCCCN1c2cccc(F)c2N(c2ccccc2F)S1(=O)=O` [Example 74, 3-[4-fluoro-3-(2-fluorophenyl)-2,2-dioxido-2,1,3-benzothiadiazol-1(3H)-yl]propan-1-amine hydrochloride] gave an IC50 of 2.7 nM.
In the case of `CNCCCN1c2ccccc2N(c2cccc(OC)c2)S1(=O)=O` [Example 17, 3-[3-(3-methoxyphenyl)-2,2-dioxido-2,1,3-benzothiadiazol-1(3H)-yl]-N-methylpropan-1-amine], the IC50 was 10.8 nM.
In the case of `O=S1(=O)N(CCCNC2CC2)c2ccccc2N1c1ccc(F)cc1F` [Example 85, N-{3-[3-(2,4-Difluorophenyl)-2,2-dioxido-2,1,3-benzothiadiazol-1(3H)-yl]propyl}cyclopropanamine hydrochloride], the IC50 was 203 nM.
Compound `CNCCCCCN1c2ccccc2N(c2ccccc2F)S1(=O)=O` [Example 66, 5-[3-(2-fluorophenyl)-2,2-dioxido-2,1,3-benzothiadiazol-1(3H)-yl]-N-methylpentan-1-amine] has an IC50 of 14.2 nM.
`CNCCCN1c2ccccc2N(c2ccccc2C)S1(=O)=O` [Example 16, N-methyl-3-[3-(2-methylphenyl)-2,2-dioxido-2,1,3-benzothiadiazol-1(3H)-yl]propan-1-amine] gave an IC50 of 7.06 nM.
`CNCCCN1c2c(F)cccc2N(c2ccccc2)S1(=O)=O` [Example 39, 3-(7-fluoro-2,2-dioxido-3-phenyl-2,1,3-benzothiadiazol-1(3H)-yl)-N-methylpropan-1-amine] was tested, and the IC50 was 29.3 nM.
In the case of `Cc1ccc(N2c3ccccc3N(CCCCN(C)C)S2(=O)=O)c(F)c1` [Example 106, 4-[3-(2-fluoro-4-methylphenyl)-2,2-dioxido-2,1,3-benzothiadiazol-1(3H)-yl]-N,N-dimethylbutan-1-amine], the IC50 was 591 nM.
Work on `CNCCCN1c2ccc(-c3ccccc3)cc2N(c2ccccc2F)S1(=O)=O` [Example 71, 3-[3-(2-fluorophenyl)-2,2-dioxido-5-phenyl-2,1,3-benzothiadiazol-1(3H)-yl]-N-methylpropan-1-amine hydrochloride] yielded an IC50 of 206 nM.
For `CNCCCN1c2ccccc2N(c2ccc(F)cc2Cl)S1(=O)=O` [Example 60, 3-[3-(2-Chloro-4-fluorophenyl)-2,2-dioxido-2,1,3-benzothiadiazol-1(3H)-yl]-N-methylpropan-1-amine hydrochloride], the IC50 was 40.2 nM.
`CNCCCN1c2ccccc2N(c2cc(F)ccc2F)S1(=O)=O` [Example 48, 3-[3-(2,5-difluorophenyl)-2,2-dioxido-2,1,3-benzothiadiazol-1(3H)-yl]-N-methylpropan-1-amine hydrochloride] gave an IC50 of 2.78 nM.
With `CCNCCCCN1c2ccccc2N(c2c(F)cccc2F)S1(=O)=O` [Example 122, 4-[3-(2,6-difluorophenyl)-2,2-dioxido-2,1,3-benzothiadiazol-1(3H)-yl]-N-ethylbutan-1-amine hydrochloride] the IC50 was 48 nM.
`CNCCCCN1c2ccccc2N(c2ccc(C)cc2F)S1(=O)=O` [Example 104, 4-[3-(2-fluoro-4-methylphenyl)-2,2-dioxido-2,1,3-benzothiadiazol-1(3H)-yl]-N-methylbutan-1-amine] was tested, and the IC50 was 26 nM.
Compound `CNCCCN1c2ccccc2N(c2ccc(C)cc2F)S1(=O)=O` [Example 108, 3-[3-(2-fluoro-4-methylphenyl)-2,2-dioxido-2,1,3-benzothiadiazol-1(3H)-yl]-N-methylpropan-1-amine] has an IC50 of 4 nM.
Work on `CNCCCCCN1c2ccccc2N(c2ccc(F)cc2Cl)S1(=O)=O` [Example 89, 5-[3-(2-chloro-4-fluorophenyl)-2,2-dioxido-2,1,3-benzothiadiazol-1(3H)-yl]-N-methylpentan-1-amine hydrochloride] yielded an IC50 of 2110 nM.
`CNCCCN1c2ccccc2N(c2ccccn2)S1(=O)=O` [Example 31, 3-(2,2-dioxido-3-pyridin-2-yl-2,1,3-benzothiadiazol-1(3H)-yl)-N-methylpropan-1-amine hydrochloride] showed an IC50 of 23.6 nM.
Work on `CCc1ccc(N2c3ccccc3N(CCCNC)S2(=O)=O)nc1` [Example 29, 3-[3-(5-ethylpyridin-2-yl)-2,2-dioxido-2,1,3-benzothiadiazol-1(3H)-yl]-N-methylpropan-1-amine hydrochloride] yielded an IC50 of 434 nM.
`O=S1(=O)N(CCCNC2CCNCC2)c2ccccc2N1c1ccccc1F` [Example 131, N-{3-[3-(2-fluorophenyl)-2,2-dioxido-2,1,3-benzothiadiazol-1(3H)-yl]propyl}piperidin-4-amine dihydrochloride] was tested, and the IC50 was 365 nM.

Same assay, conditions: read-out: NE uptake (Protocol B) IC50; MDCK-Net6 cells, 3H-NE 16 nM
“N-{3-[3-(2-fluorophenyl)-2,2-dioxido-2,1,3-benzothiadiazol-1(3H)-yl]butyl}cyclopropanamine [Example 99]” was tested, and the pIC50 was 7.66.

From US20080161366A1, “AMINOALKYL SUBSTITUTED ARYL SULFAMIDE DERIVATIVES AND METHODS OF THEIR USE” (Wyeth, priority 2006, published 2008)
